{"source": "patent US8865748B2", "about": "“Compounds and compositions for stabilizing hypoxia inducible factor-2 alpha as a method for treating cancer” (Akebia Therapeutics Inc., priority 2011, dated 2014)", "system": "B16F10 melanoma tumors", "experiment": "Murine melanoma tumor model (B16F10 in C57BL/6 mice)", "assay_type": "in vivo", "conditions": "for tumor growth: FIG. 14A", "protocol": "Mice were injected with 1×10^5 B16F10 murine melanoma cells murine subcutaneously on the left flank. Once tumors become palpable (approximately 5 days), mice were randomly allocated to receive treatment with either: 20% polyethylene glycol (PEG) in 5% […] (vehicle control for the disclosed HIF-2α stabilizer) and PBS (vehicle control for GM-CSF), 20% PEG and GM-CSF (100 ng per mouse in a 50 μL volume), the disclosed HIF-2α stabilizer (17.5 mg/kg in a 100 μL volume) and PBS, or the disclosed HIF-2α stabilizer and GM-CSF (same doses). The PBS and GM-CSF were administered intratumorally, while the 20% PEG and the disclosed HIF-2α stabilizer were administered intraperitoneally. Mice were treated 3 times per week until tumors reached a size of 20 mm in any dimension (approximately 2.5 weeks), at which point mice were euthanized, in accordance with institutional policy. Tumor diameters were measured 3 times per week with calipers, and tumor volumes were calculated as follows: Tumor volume=0.5×[(large diameter)×(small diameter)^2].\n6-8-week-old C57BL/6 mice were injected with 1×10^5 B16F10 murine melanoma cells murine subcutaneously on the left flank. Once tumors become palpable (approximately 5 days), mice were randomly allocated to receive treatment with either: 20% PEG-400 in 5% sucrose (vehicle for disclosed HIF-2α stabilizer) and PBS (vehicle for GM-CSF), 20% PEG-400 and GM-CSF (100 ng per mouse in a 50 μL volume), disclosed HIF-2α stabilizer (17.5 mg/kg mouse weight in a 100 μL volume) and PBS, or the disclosed HIF-2α stabilizer and GM-CSF (same concentrations). The disclosed HIF-2α stabilizer (or the vehicle control) was administered intraperitoneally, while GM-CSF (or the vehicle control) was administered intratumorally. Mice were treated […] 3 times per week until tumors reached a size of 20 mm in any dimension (approximately 2.5 weeks), at which point mice were be euthanized, in accordance with institutional policy. Tumor diameters were measured 3 times per week with calipers, and tumor volumes will be calculated as follows: Tumor volume=0.5×[(large diameter)×(small diameter)^2]. For experiments analyzing the effect of neutralizing sVEGFR-1 in combination with disclosed HIF-2α stabilizer treatment, mice were treated intraperitoneally 3×/week with either disclosed HIF-2α stabilizer or vehicle control, and intratumorally with either 4 μg anti-VEGFR-1 neutralizing antibody (R&D Systems) or 4 μg polyclonal goat IgG isotype control (Santa Cruz Biotechnology) in a 50 μL volume. All protocols were approved by the Ohio State University Animal Care and Use Committee, and mice were treated in accordance with institutional guidelines for animal care.\nThe ANOVA test was used to compare independent measurements between multiple treatment groups. The data was log-transformed to normalize the variance across groups. P-values were adjusted using the Holm's procedure to conserve the type I error at 0.05 due to the multiple comparisons. For tumor growth data, changes in tumor volume over time were assessed via a longitudinal model. Tumor values were log-transformed, and estimated slopes (changes in tumor volume over time) were calculated with 95% confidence intervals. Estimated differences in tumor volume were calculated by a random-effects regression of the longitudinal data. For all analyses, p≦0.05 was considered statistically significant.\nTo confirm that the modulation of tumor growth and angiogenesis was due to sVEGFR-1 production in response to the disclosed HIF-2α stabilizer, mice were treated with the disclosed HIF-2α stabilizer in the presence or absence of an sVEGFR-1 neutralizing Ab.\n6-8-week-old C57BL/6 mice or SCID mice were injected with 1×10^5 B16F10 murine melanoma cells or 1×10^6 A375 human melanoma cells, respectively, subcutaneously on the left flank. […]"}
{"smiles": "O=C(O)CNC(=O)c1ncc(-c2cccc(F)c2)cc1O", "note": "[disclosed HIF-2α stabilizer, {[5-(3-Fluorophenyl)-3-hydroxypyridine-2-carbonyl]amino}acetic acid]", "values": [{"measurement": "tumor growth (tumor volume)", "setting": "FIG. 3, stabilizer 17 mg/kg I.P., GM-CSF 100 ng per mouse I.T., 3 times per week, vs. PBS control", "value": "reduces tumor growth"}, {"measurement": "increase in median survival", "setting": "FIG. 12B, median survival defined as the time to a tumor diameter of 20 mm, 17.5 mg/kg intraperitoneal 3x/week, p=0.023", "value": 3, "unit": "days"}, {"measurement": "average tumor volumes vs. vehicle controls", "setting": "day 16 of treatment, GM-CSF 100 ng/mouse intratumoral or stabilizer 17.5 mg/kg intraperitoneal, 3x/week, each p<0.001", "value": "significantly smaller"}, {"measurement": "tumor growth", "setting": "mice also treated with the anti-sVEGFR-1 neutralizing antibody, p=0.245", "value": "no effect on tumor growth"}, {"measurement": "tumor growth", "setting": "mice treated with an isotype control antibody, p<0.001", "value": "decreased tumor growth"}]}
